The NIST ThermoML archive (doi:10.1021/acs.jced.7b00788)

Experiment: xn = mol fraction of the nth substance listed
Details: 100 kPa, Liquid; for viscosity: Concentric cylinders viscometry; for mass density: Vibrating tube method

CCOP(=O)([O-])OCC.CCn1cc[n+](C)c1 [1-ethyl-3-methylimidazolium diethyl phosphate] + O
Details | mass density [kg/m3] | viscosity [mPa·s]
293.15 K, x2 = 0.012 | 1151.2 | 540
293.15 K, x2 = 0.061 | 1151.7 | 513
293.15 K, x2 = 0.123 | 1152.1 | 487
293.15 K, x2 = 0.183 | 1152.4 | 462
293.15 K, x2 = 0.259 | 1153 | 422
293.15 K, x2 = 0.502 | 1154.6 | 202
293.15 K, x2 = 0.765 | 1150.2 | 51.1
293.15 K, x2 = 0.88 | 1124 | 12.5
303.15 K, x2 = 0.012 | 1144.2 | 274
303.15 K, x2 = 0.061 | 1144.7 | 262
303.15 K, x2 = 0.123 | 1145.2 | 250
303.15 K, x2 = 0.183 | 1145.5 | 238
303.15 K, x2 = 0.259 | 1146.1 | 219
303.15 K, x2 = 0.502 | 1147.8 | 111
303.15 K, x2 = 0.765 | 1143.1 | 31.2
303.15 K, x2 = 0.88 | 1116.7 | 8.35
313.15 K, x2 = 0.012 | 1137.4 | 154
313.15 K, x2 = 0.061 | 1137.9 | 148
313.15 K, x2 = 0.123 | 1138.4 | 141
313.15 K, x2 = 0.183 | 1138.7 | 135
313.15 K, x2 = 0.259 | 1139.3 | 125
313.15 K, x2 = 0.502 | 1141.1 | 65.8
313.15 K, x2 = 0.765 | 1135.9 | 20.3
313.15 K, x2 = 0.88 | 1109.2 | 5.91
323.15 K, x2 = 0.012 | 1130.7 | 94
323.15 K, x2 = 0.061 | 1131.2 | 90.2
323.15 K, x2 = 0.123 | 1131.7 | 86.4
323.15 K, x2 = 0.183 | 1132 | 83.1
323.15 K, x2 = 0.259 | 1132.6 | 76.5
323.15 K, x2 = 0.502 | 1134.3 | 40.7
323.15 K, x2 = 0.765 | 1128.6 | 14
323.15 K, x2 = 0.88 | 1101.7 | 4.38
333.15 K, x2 = 0.012 | 1124.1 | 61.2
333.15 K, x2 = 0.061 | 1124.6 | 58.8
333.15 K, x2 = 0.123 | 1125 | 56.2
333.15 K, x2 = 0.183 | 1125.4 | 54.3
333.15 K, x2 = 0.259 | 1126 | 49.3
333.15 K, x2 = 0.502 | 1127.4 | 27.6
333.15 K, x2 = 0.765 | 1121.2 | 10.1
333.15 K, x2 = 0.88 | 1094 | 3.36
343.15 K, x2 = 0.012 | 1117.5 | 42.1
343.15 K, x2 = 0.061 | 1118 | 40.4
343.15 K, x2 = 0.123 | 1118.4 | 38.6
343.15 K, x2 = 0.183 | 1118.8 | 37.4
343.15 K, x2 = 0.259 | 1119.3 | 34.1
343.15 K, x2 = 0.502 | 1120.5 | 19.6
343.15 K, x2 = 0.765 | 1113.8 | 7.58
343.15 K, x2 = 0.88 | 1086.1 | 2.67
353.15 K, x2 = 0.012 | 1111 | 30.2
353.15 K, x2 = 0.061 | 1111.5 | 29
353.15 K, x2 = 0.123 | 1111.9 | 27.7
353.15 K, x2 = 0.183 | 1112.1 | 26.9
353.15 K, x2 = 0.259 | 1112.7 | 24.5
353.15 K, x2 = 0.502 | 1113.7 | 14.4
353.15 K, x2 = 0.765 | 1106.3 | 5.88
353.15 K, x2 = 0.88 | 1078.1 | 2.18
363.15 K, x2 = 0.012 | 1104.5 | 22.5
363.15 K, x2 = 0.061 | 1104.9 | 21.6
363.15 K, x2 = 0.123 | 1105.2 | 20.6
363.15 K, x2 = 0.183 | 1105.6 | 20
363.15 K, x2 = 0.259 | 1106.1 | 18.3
363.15 K, x2 = 0.502 | 1106.8 | 11.2
363.15 K, x2 = 0.765 | 1098.7 | 4.69
363.15 K, x2 = 0.88 | 1070 | 1.83
373.15 K, x2 = 0.012 | 1098.2 | 17.3
373.15 K, x2 = 0.061 | 1098.5 | 16.5
373.15 K, x2 = 0.123 | 1098.9 | 15.8
373.15 K, x2 = 0.183 | 1099.1 | 15.3
373.15 K, x2 = 0.259 | 1099.6 | 14.1
373.15 K, x2 = 0.502 | 1099.9 | 8.9
373.15 K, x2 = 0.765 | 1091.2 | 3.83
373.15 K, x2 = 0.88 | 1061.9 | 1.55
